In brackets after ≈: the same amount, converted by molar mass.
Assays:
Type in all cases: cell-based, human
[1] = system: PBMCs and NK cells; experiment: Perforin levels in TPP-treated total PBMCs and NK cells; conditions: PBMC populations or NK cells
Method: (§2) Cells were washed after 3 h treatment and re-plated in a 48-well plate at 1 million cells/well/mL with and without the presence of 10 μg/mL polyinosinic:polycytidylic acid (poly I:C) or lipopolysaccharide (LPS). After a 67 h incubation, supernatants were taken for secreted cytokine analysis. Cells were plated onto a 96-well plate at 1×10^6/mL and further incubated for 4 h with 200 μL of media with Golgiplug (1 μg/mL) (BD Biosciences, San Jose, Calif.) to measure intracellular cytokines. Cells were then harvested, washed and surface stained for CD56-PE and CD2-FITC, CD69-APC monoclonal antibodies (mAB) for 30 min at 4° C. After washing, cells were fixed and permeabilized with BD Biosciences Cytofix/Cytoperm buffer for 20 min on ice in the dark. Cells were then stained with anti-IFN-γ-PE, anti-TNF-α-APC and anti-perforin-FITC mAB and incubated for an additional 30 min on ice. After washing the cells, they were re-suspended in a total volume of 200 μL of 2% paraformaldehyde for FACS analysis. Forward scatter, side scatter, fluorescence intensity and percent positivity were measured after acquiring 100,000 cells per sample by flow cytometry (BD Biosciences, San Jose, Calif.), and the data were analyzed using Cell Quest (BD Biosciences, San Jose, Calif.) and Flow Jo (Tree Star, Ashland, Oreg.) software.

[2] = system: PBMCs; experiment: Secreted cytokines by CBA after 24 h LPS stimulation (modified protocol)
Method: (§1) Previous methods utilized stimulation with TLR agonists (LPS is for […] and Poly I:C is for TLR3) for 67 h to measure intracellular cytokines and secreted cytokines.
To measure immunomodulatory effects, PBMCs were stimulated with LPS for different time periods and the secreted cytokines were measured by cytometric bead array (CBA) method. To establish LPS stimulation time, PBMCs were exposed to LPS stimulation for 4 h, 24 h, 48 h and 72 h and secreted cytokines were measured.

[3] = system: PBMCs; experiment: Cytolytic assay: killing of CFSE-labeled K562 target cells by TPP-treated PBMCs
[4] = system: PBMCs; experiment: IL-8 secretion by ELISA after LPS stimulation; conditions: 2 mg/mL
Method: Suppression of cytokines was also evident with nicotine. […] Next were measured IL-8 levels in the same samples as above using an ELISA assay.

[5] = system: PBMCs; experiment: Cell death / viability of PBMCs by 7AAD staining (flow cytometry)
Source text: Cell death measured by 7-Aminoactinomycin D (7AAD) staining method is simple and more reliable as 7AAD intercalates into double-stranded nucleic acids and can penetrate cell membranes of dying or dead cells.

[6] = system: NK cells; experiment: CD69 expression in NK cells of TPP-treated PBMCs (flow cytometry); conditions: 1650 μg/mL
Method: Cells were washed after 3 h treatment and re-plated in a 48-well plate at 1 million cells/well/mL with and without the presence of 10 μg/mL polyinosinic:polycytidylic acid (poly I:C) or lipopolysaccharide (LPS). After a 67 h incubation, supernatants were taken for secreted cytokine analysis. Cells were plated onto a 96-well plate at 1×10^6/mL and further incubated for 4 h with 200 μL of media with Golgiplug (1 μg/mL) (BD Biosciences, San Jose, Calif.) to measure intracellular cytokines. Cells were then harvested, washed and surface stained for CD56-PE and CD2-FITC, CD69-APC monoclonal antibodies (mAB) for 30 min at 4° C. After washing, cells were fixed and permeabilized with BD Biosciences Cytofix/Cytoperm buffer for 20 min on ice in the dark. […] Forward scatter, side scatter, fluorescence intensity and percent positivity were measured after acquiring 100,000 cells per sample by flow cytometry (BD Biosciences, San Jose, Calif.), and the data were analyzed using Cell Quest (BD Biosciences, San Jose, Calif.) and Flow Jo (Tree Star, Ashland, Oreg.) software.
CD69 is an early inducible cell surface glycoprotein expressed during lymphoid activation and is involved in NK cell function. PBMCs were treated with TPPs, and CD69 expression on NK cell population was analyzed by flow cytometry after poly I:C and LPS stimulation.

[7] = system: PBMCs; experiment: Intracellular cytokine-positive cells after 6 h LPS plus Golgiplug (modified protocol); conditions: total 6 h
Method: as §1

[8] = system: NK cells; experiment: TNF-α+ NK cells in poly I:C- and LPS-stimulated PBMCs treated with TPPs
Method: as §2

[9] = system: T cells; experiment: Intracellular TNF-α and IFN-γ positive T cells in TPP-treated PBMCs stimulated with poly I:C or LPS (flow cytometry)
Method: Dosing was based on an equi-nicotine exposure paradigm. Cells were washed after 3 h treatment and re-plated in a 48-well plate at 1 million cells/well/mL with and without the presence of 10 μg/mL polyinosinic:polycytidylic acid (poly I:C) or lipopolysaccharide (LPS). After a 67 h incubation, supernatants were taken for secreted cytokine analysis. Cells were plated onto a 96-well plate at 1×10^6/mL and further incubated for 4 h with 200 μL of media with Golgiplug (1 μg/mL) (BD Biosciences, San Jose, Calif.) to measure intracellular cytokines. Cells were then harvested, washed and surface stained for CD56-PE and CD2-FITC, CD69-APC monoclonal antibodies (mAB) for 30 min at 4° C. After washing, cells were fixed and permeabilized with BD Biosciences Cytofix/Cytoperm buffer for 20 min on ice in the dark. Cells were then stained with anti-IFN-γ-PE, anti-TNF-α-APC and anti-perforin-FITC mAB and incubated for an additional 30 min on ice. After washing the cells, they were re-suspended in a total volume of 200 μL of 2% paraformaldehyde for FACS analysis. Forward scatter, side scatter, fluorescence intensity and percent positivity were measured after acquiring 100,000 cells per sample by flow cytometry (BD Biosciences, San Jose, Calif.), and the data were analyzed using Cell Quest (BD Biosciences, San Jose, Calif.) and Flow Jo (Tree Star, Ashland, Oreg.) software.
It was sought to evaluate intracellular cytokine levels in T cells after treating with combustible and non-combustible TPPs. In a first set of experiments, measured was the induction of intracellular TNF-α and IFN-γ by flow cytometry after PBMCs were treated with TPPs and stimulated with either poly I:C or LPS.
It was assessed whether the pretreatment of PBMCs with TPPs compromised their ability to produce TNF-α^+ cells when stimulated with poly I:C and LPS.
Evaluated also were changes in the number of IFN-γ^+ T cells with TPP treatment followed by poly I:C and LPS stimulation.

CN1CCCC1c1cccnc1 (centres unmarked) [nicotine]
changes in perforin levels [1]: did not result in statistically significant changes
secreted cytokines ([2]; LPS stimulation, 24 h): dose-dependent decrease
secreted IL-6 ([2]; highest concentration (4 mg/mL) tested, LPS 24 h): suppressed
secreted IFN-γ ([2]; range of concentrations up to 500 μg/mL of nicotine, LPS 24 h): significantly suppressed
target cell killing ability ([3]; K562 targets, target:effector 1:15): did not reduce
cell killing (K562 targets) ([3]; low and high doses): did not interfere
IL-8 secretion, suppressive effects [4]: significant
cell death ([5]; 3 h, 2000 μg/mL): 8%
cell death ([5]; 24 h, 3,000 μg/mL nicotine, comparable to near 80%): comparable degree of cell death
EC50 ([5]; Homo sapiens, PBMC, 7AAD positive staining of PBMCs, 24 h assay, neat nicotine, read-out: EC50 (concentration at which 50% of the cells were no longer viable)): 1650 µg/mL (≈ 10.2 mM)
basal levels of the induction of CD69 relative to untreated cells [6]: did not increase
IFN-γ-positive cells, TNF-α-positive cells and MIP-1α-positive cells [7]: dose-dependent percent reduction
changes in TNF-α+ NK cells ([8]; higher dose (1650 μg/mL), after LPS stimulation): statistically significant reduction
changes in TNF-α+ NK cells ([8]; lower doses (10 and 500 μg/mL)): did not induce statistically significant changes
basal levels of TNF-α+ T cells ([9]; 1650 μg/mL, basal (unstimulated)): higher basal levels
TNF-α+ T cell numbers ([9]; 10-1650 μg/mL, poly I:C and LPS stimulation): did not yield statistically significant differences
IFN-γ+ T cells (cytokine-positive cells) ([9]; only at the highest concentrations, changes not statistically significant): Measurable suppression

Source: patent publication US10309956B2, “Process for assessing risk of substance administration” (priority 2014, dated 2019)
